Where two headings read alike, the source gives them in different places.
Assays:
[1] = target: D2 receptor (Rattus norvegicus (Rat), UniProt P61169); test: D2 receptor binding assay (3H-Spiperone, rat brain striatum membrane); conditions: read-out: D2 Inhibition %
Method: Brain striatum was rapidly taken, and 2 brain striatums were combined into a centrifuge tube, to which 3 ml of buffer (0.05 M Tris-HCl buffer, containing NaCl 120 mM, KCl 5 mM, MgCl2 1 mM, CaCl2 1 mM) was added, homogenization was conducted for 3-4 s at level 4 for four times, and then 5 ml of buffer was then added. The weight of the homogenized tubes were adjusted using a balance, and centrifugation was conducted at 12000 r, 4° C. for 20 min. The supernatant was discarded, and 3 ml of buffer was added (0.05 M Tris-HCl buffer, containing NaCl 120 mM, KCl 5 mM, MgCl2 1 mM, CaCl2 1 mM). Vortex mixer was used for blending, and then 5 ml of buffer was added (0.05 M Tris-HCl buffer, containing NaCl 120 mM, KCl 5 mM, MgCl2 1 mM, CaCl2 1 mM). Centrifugation was conducted and repeated 3 times. After the centrifugations, the supernatant was discarded, and the pellets were stored at −80° C. for future use.
Beckman LS-6500 Multi-function Liquid Scintillation Counter was used.
(1) The prepared membrane was first applied with appropriate amount of buffer (0.05 M Tris-HCl buffer, containing NaCl 120 mM, KCl 5 mM, MgCl2 1 mM, CaCl2 1 mM), and homogenizer was used for evenly dispersing. 15 tubes were mixed into a 100 ml container, and appropriate amount of homogenized liquid was added to give 50 ml of membrane suspension, which was reserved for future use.
(2) 100 μL of membrane preparation and 100 μL of buffer (0.05 M Tris-HCl buffer, containing NaCl 120 mM, KCl 5 mM, MgCl2 1 mM, CaCl2 1 mM) were added into each reaction tube.
(3) 100 μL of homogenized liquid was added into the total binding tube (TB), 100 μL of Butaclamol (final concentration 10^−5 M) was added into the non-specific binding tube (NB), and 100 μL of the test compound (final concentration 10^−5 M) was added into the specific binding tube (SB) for each compound.
(5) Each of the reaction tubes was incubated at 37° C. for 20 min. After the reaction was completed, the bound ligands were rapidly filtered under reduced pressure, and the ice-chilled assay buffer was used for adequate washing. The filter was taken out and put into a 3 ml scintillation vial, and 2 ml of toluene scintillation solution was added and blended.
(6) The scintillation vials were put into Liquid Scintillation Counter for counting. Inhibitory rate(1%)=[(Total binding tube cpm−compound cpm)/(Total binding tube cpm−non-specific binding tube cpm)]×100%
Each assay for the compounds was conducted in duplicate.

[2] = target: 5HT1A receptor (Rattus norvegicus (Rat), UniProt P19327); test: 5HT1A receptor binding assay (3H-8-OH-DPAT, rat brain mantle membrane); conditions: for inhibition at 10 µM: test compound final concentration 10^-5 M; for IC50: values marked a = IC50
Method: Incubation at 37° C. was conducted for 10 min, the weight of the tubes were adjusted using a balance after incubation. […] Centrifugation was conducted and repeated 3 times.

[3] = target: 5HT2A receptor (Rattus norvegicus (Rat), UniProt P14842); test: 5HT2A receptor assay ([3H]-Ketanserin, rat brain mantle membrane); assay type: binding; conditions: for inhibition at 10 µM: read-out: 5HT2A Inhibition %; for IC50: values marked a = IC50
[4] = target: D3 receptor (Homo sapiens (Human), UniProt P35462); test: D3 receptor binding assay ([3H]-Spiperone, HEK-293 cells); conditions: test compound final concentration 10 μmol/L
Method: After the cells were centrifuged at 1000 rpm for 5 min, the supernatant was discarded, and the cell pellet was collected and stored in a −20° C. fridge for reservation. It was re-suspended with Tris-Cl (pH 7.4) in the assay.
Tris was divided into aliquots by Genetimes Technology Inc.
Competitive binding test for receptors: 20 μl of each of the test compounds and 20 μl of the radioactive ligand together with 160 μl of the receptor proteins were added into the reaction tubes, and the final concentrations of the test compound and the positive drug were all 10 μmol/L. After 50 min of incubation in 30° C. water bath, the tubes were immediately moved to ice bath to terminate the reactions. GF/C glass fiber filter papers were used for rapid sucking filtration on a Millipore cell sample collector, elution buffer (50 mM Tris-HCl, PH 7.4) was applied for 3 ml×3 times, and microwave was applied for 4-5 min for drying. The filter papers were moved into 0.5 ml centrifuge tubes, and 500 μl of lipid-soluble scintillation solution was added. The tubes were allowed to stand still for over 30 min in dark, and the intensities of radioactivity were measured by a counter.

[5] = target: 5HT2C (Rattus norvegicus (Rat), UniProt P08909); test: 5HT2C receptor binding assay ([3H]-mesulergine, rat brain mantle membrane); conditions: test compound final concentration 10^-5 M
Method: Incubation at 37° C. was conducted for 10 min, the weight of the tubes were adjusted using a balance after the incubation. […] Centrifugation was conducted (repeated 3 times).

[6] = test system: apomorphine induced clambering of mice; test: Apomorphine induced clambering assay of mice; conditions: for ED50: Mus musculus, po, read-out: apomorphine induced clambering ED50; for improvement of apomorphine induced clambering symptoms (in words): compared to the model group
Method: Apomorphine provided by Sigma Company was dissolved in 0.9% NaCl (containing 0.1% vitamin C) before use, and was freshly formulated before use.
Instruments: self-made clambering cage, chronograph.
After 5 min of adaptation, the behaviors of the mice at 10-11, 20-21, 30-31 min after the injection of apomorphine were observed.

[7] = test system: MK-801 high activity mice; test: MK-801 induced high activity in mice; assay type: in vivo; conditions: for Total moving distance: MK-801 high activity mice, within 90 min; for ED50: Mus musculus, po, read-out: MK-801 induced high activity ED50; for improvement of MK-801 induced high activity (in words): compared to the model group
Method: Ascorbic acid was provided by Sinopharm Chemical Reagent Co. Ltd.
MK-801 was produced by Sigma Company, USA; the formulation method: 0.1% vitamin C was used to formulate a 1 mg/ml solution.
Tween 80, with the concentration of 10%.
Mice with qualified body weight were selected, and randomly divided into blank group, model group, positive control group (risperidone group) and drug group. […] 1 H after the administration, 0.1% of ascorbic acid was intraperitoneally injected to the blank group at 0.1 ml/10 g; and the model group, the positive control group (30 min) and the drug group were intraperitoneally injected the MK-801 solution at 0.1 mg/kg. Subsequently, the spontaneous activities of the mice of each group in 90 min were measured.

[8] = test system: KM mice (catalepsy); test: Catalepsy assay in mice; assay type: in vivo; conditions: for catalepsy/MK-801 / catalepsy/apomorphine: ratio of ED50 values
Method: (§1) The durations for the mice to maintain the posture with the two forepaws on the bars were recorded, and 30 s of spasticity without moving was considered as the positive response. In the case the forepaws of the mice were not put down persistently, the observation was terminated at 60 s. The numbers of animals with positive response in each of the compound dosage groups were counted.

[9] = Catalepsy assay in mice; assay type: in vivo; conditions: both sexes, Kunming (KM), mouse, in vivo; po, mice
Method: as §1

[10] = in vivo; conditions: both sexes, mouse, in vivo, po
Method: (§2) KM mice (half male and half female) were randomly divided into several groups (with 2-5 mice in each group), which were respectively the 2000 mg/kg groups for each compound, and the solvent group. 0.2 ml/10 g were administered intragastrically. The death of the animals in 3 days were observed. (In the case 3 or more animals survived in 3 days without notable abnormity in their life states, the observation was continued until the assay was completed in 7 days. In the case 3 or more animals died in 3 days, the median lethal dose method was used to determine the LD50).
(§3) KM mice (half male and half female) were randomly divided into several groups (with 4 mice in each group), which were respectively the 1500 mg/kg, 1000 mg/kg, 500 mg/kg groups for each compound, and the solvent group. 0.2 ml/10 g were administered intragastrically, and the death of the animals in 1-3 days were observed.

[11] = test system: four receptors (D2, D3, 5-HT1A and 5-HT2A); test: In vitro receptor binding assays, summary over four receptors; conditions: in vitro assay
[12] = test system: KM mice; test: in vivo; conditions: po, single intragastric administration in mice
Method: as §2, §3

[13] = single intragastric administration in mice, read-out: LD50

Chain of D2 receptor (P61169 whole entry): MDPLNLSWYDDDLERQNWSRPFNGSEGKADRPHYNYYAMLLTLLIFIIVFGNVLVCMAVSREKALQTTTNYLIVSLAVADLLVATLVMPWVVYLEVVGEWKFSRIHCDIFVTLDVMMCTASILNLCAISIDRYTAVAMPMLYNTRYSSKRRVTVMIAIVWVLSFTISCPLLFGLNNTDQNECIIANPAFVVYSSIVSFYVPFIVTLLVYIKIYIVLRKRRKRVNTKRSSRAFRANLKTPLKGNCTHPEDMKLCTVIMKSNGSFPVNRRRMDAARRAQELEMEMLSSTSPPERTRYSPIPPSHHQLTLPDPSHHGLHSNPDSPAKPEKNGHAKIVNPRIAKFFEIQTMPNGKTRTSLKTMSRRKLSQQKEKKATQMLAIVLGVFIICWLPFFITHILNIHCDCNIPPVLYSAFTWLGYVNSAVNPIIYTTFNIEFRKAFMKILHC
Chain of 5HT1A receptor (P19327 whole entry): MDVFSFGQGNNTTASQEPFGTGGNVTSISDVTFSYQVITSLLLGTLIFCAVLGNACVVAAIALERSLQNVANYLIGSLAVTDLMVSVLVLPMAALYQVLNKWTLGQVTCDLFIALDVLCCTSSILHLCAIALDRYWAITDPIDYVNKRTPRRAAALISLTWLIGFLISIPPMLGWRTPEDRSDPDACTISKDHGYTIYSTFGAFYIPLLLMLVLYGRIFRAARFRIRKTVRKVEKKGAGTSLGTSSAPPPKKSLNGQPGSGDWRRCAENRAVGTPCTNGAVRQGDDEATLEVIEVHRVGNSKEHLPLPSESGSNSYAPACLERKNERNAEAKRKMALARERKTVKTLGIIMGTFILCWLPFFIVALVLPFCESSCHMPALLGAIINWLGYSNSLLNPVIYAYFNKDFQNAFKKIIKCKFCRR
Chain of 5HT2C (P08909 33-460 limits assumed): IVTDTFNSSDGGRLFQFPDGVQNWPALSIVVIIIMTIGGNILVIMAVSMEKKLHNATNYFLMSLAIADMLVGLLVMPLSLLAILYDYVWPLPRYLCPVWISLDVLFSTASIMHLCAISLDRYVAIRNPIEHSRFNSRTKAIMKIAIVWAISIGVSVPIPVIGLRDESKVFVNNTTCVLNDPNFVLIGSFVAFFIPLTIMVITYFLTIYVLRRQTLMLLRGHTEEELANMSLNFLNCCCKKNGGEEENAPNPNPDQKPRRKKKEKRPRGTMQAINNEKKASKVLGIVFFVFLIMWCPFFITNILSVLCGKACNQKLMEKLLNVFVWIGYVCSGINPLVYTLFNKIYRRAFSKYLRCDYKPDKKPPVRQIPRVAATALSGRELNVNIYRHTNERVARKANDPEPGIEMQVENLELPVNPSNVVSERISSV
Chain of 5HT2A receptor (P14842 whole entry): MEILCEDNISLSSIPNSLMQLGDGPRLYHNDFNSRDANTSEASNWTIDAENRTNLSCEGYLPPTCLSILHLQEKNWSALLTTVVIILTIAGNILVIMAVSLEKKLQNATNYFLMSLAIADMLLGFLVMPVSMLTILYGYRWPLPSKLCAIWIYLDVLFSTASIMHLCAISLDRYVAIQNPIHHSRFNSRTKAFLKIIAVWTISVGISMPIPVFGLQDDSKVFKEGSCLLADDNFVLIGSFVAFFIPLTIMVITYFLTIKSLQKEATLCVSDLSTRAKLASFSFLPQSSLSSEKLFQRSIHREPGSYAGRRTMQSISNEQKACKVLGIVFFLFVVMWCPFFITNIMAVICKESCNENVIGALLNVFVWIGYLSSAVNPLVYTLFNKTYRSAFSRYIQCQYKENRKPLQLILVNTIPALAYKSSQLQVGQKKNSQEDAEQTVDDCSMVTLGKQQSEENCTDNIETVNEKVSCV
Chain of D3 receptor (P35462 whole entry): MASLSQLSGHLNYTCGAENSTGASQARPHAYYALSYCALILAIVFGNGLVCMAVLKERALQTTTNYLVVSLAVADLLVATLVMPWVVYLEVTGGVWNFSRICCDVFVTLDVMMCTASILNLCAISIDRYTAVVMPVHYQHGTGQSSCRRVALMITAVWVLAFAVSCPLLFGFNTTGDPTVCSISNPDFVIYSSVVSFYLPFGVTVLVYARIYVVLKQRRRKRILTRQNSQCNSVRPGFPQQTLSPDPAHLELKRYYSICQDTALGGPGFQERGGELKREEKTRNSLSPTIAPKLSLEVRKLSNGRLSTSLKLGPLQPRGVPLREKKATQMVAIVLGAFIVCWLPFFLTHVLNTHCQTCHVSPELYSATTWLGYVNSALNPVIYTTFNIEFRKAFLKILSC

c1ccc(-c2nnc(SCCCN3CCN(c4nsc5ccccc45)CC3)o2)cc1 [Compound 1]
inhibition at 10 µM [1]: 62.4% | inhibition at 10 µM [2]: 17.9% | inhibition at 10 µM [3]: 87.1%

Fc1ccc2c(C3CCN(CCCSc4nnc(-c5ccccc5)o4)CC3)noc2c1 [Compound 2]
inhibition at 10 µM [1]: 77.5% | inhibition at 10 µM [2]: 6.1% | inhibition at 10 µM [3]: 11%

COc1ccc(-c2nnc(SCCCN3CCN(c4nsc5ccccc45)CC3)o2)cc1 [Compound 3]
inhibition at 10 µM [1]: 108% | IC50 [2]: 8.82 nM | inhibition at 10 µM [4]: 99.5% | inhibition at 10 µM [5]: 98.5% | IC50 [3]: 2.27 nM

COc1ccc(-c2nnc(SCCCN3CCC(c4noc5cc(F)ccc45)CC3)o2)cc1 [Compound 4]
ED50 [6]: 1.62 mg/kg | improvement of apomorphine induced clambering symptoms (in words) [6]: effectively improve | Total moving distance ([7]; 3 mg/kg intragastric): 24988.83 ± 7617.21 cm | Total moving distance ([7]; 5 mg/kg intragastric): 22872.82 ± 10538.51 cm | Total moving distance ([7]; 10 mg/kg intragastric): 13574.51 ± 5340.38 cm | Total moving distance ([7]; 30 mg/kg intragastric): 7773.56 ± 3681.67 cm | Total moving distance ([7]; 100 mg/kg intragastric): 6954.61 ± 4931.26 cm | ED50 ([7]; mice): 15.4 mg/kg | improvement of MK-801 induced high activity (in words) [7]: significantly improve | EPS at effective dosage (in words) [8]: did not cause EPS | catalepsy/MK-801 [8]: 41.56 | catalepsy/apomorphine [8]: 395.30 | ED50 [9]: 640 mg/kg | inhibition at 10 µM [1]: 113% | IC50 [2]: 12.7 nM | LD50 [10, 13]: > 2000 mg/kg | inhibition at 10 µM [4]: 101% | inhibition at 10 µM [5]: 82.1% | IC50 [3]: 0.51 nM

Clc1ccc(-c2nnc(SCCCN3CCN(c4nsc5ccccc45)CC3)o2)cc1 [Compound 5]
inhibition at 10 µM [1]: 92.7% | IC50 [2]: 26.9 nM | inhibition at 10 µM [4]: 98.7% | inhibition at 10 µM [5]: 56.5% | IC50 [3]: 62.5 nM

Fc1ccc2c(C3CCN(CCCSc4nnc(-c5ccc(Cl)cc5)o4)CC3)noc2c1 [Compound 6]
ED50 [6]: 4.1 mg/kg | improvement of apomorphine induced clambering symptoms (in words) [6]: effectively improve | Total moving distance ([7]; 3 mg/kg intragastric): 20912.66 ± 9887.01 cm | Total moving distance ([7]; 5 mg/kg intragastric): 15745.74 ± 5475.41 cm | Total moving distance ([7]; 10 mg/kg intragastric): 12997.51 ± 7859.06 cm | Total moving distance ([7]; 20 mg/kg intragastric): 6741.35 ± 2251.52 cm | Total moving distance ([7]; 30 mg/kg intragastric): 8454.72 ± 7864.50 cm | ED50 ([7]; mice): 3.31 mg/kg | improvement of MK-801 induced high activity (in words) [7]: significantly improve | EPS at effective dosage (in words) [8]: did not cause EPS | catalepsy/MK-801 [8]: 28.02 | catalepsy/apomorphine [8]: 22.62 | ED50 [9]: 92.7 mg/kg | inhibition at 10 µM [1]: 104% | IC50 [2]: 19.9 nM | LD50 [10, 13]: > 2000 mg/kg | inhibition at 10 µM [4]: 101% | inhibition at 10 µM [5]: 68.1% | IC50 [3]: 15.1 nM

FC(F)(F)c1ccc(-c2nnc(SCCCN3CCN(c4nsc5ccccc45)CC3)o2)cc1 [Compound 7, 2-((3-(4-(3-benzisothiazole)-1-piperazinyl)propylthio)-5-(4-trifluoromethyl)phenyl)-1,3,4-oxadiazole]
inhibition at 10 µM [1]: 80.6% | inhibition at 10 µM [2]: 113% | inhibition at 10 µM [3]: 98.8%

Fc1ccc2c(C3CCN(CCCSc4nnc(-c5ccc(C(F)(F)F)cc5)o4)CC3)noc2c1 [Compound 8, 2-((3-(4-(3-(6-fluoro-benzisoxazole))-1-piperidyl)propylthio)-5-(4-trifluoromethyl)phenyl)-1,3,4-oxadiazole]
inhibition at 10 µM [1]: 105% | inhibition at 10 µM [2]: 20.8% | inhibition at 10 µM [3]: 101%

Fc1ccc(-c2nnc(SCCCN3CCN(c4nsc5ccccc45)CC3)o2)cc1 [Compound 9, 2-((3-(4-(3-benzisothiazole)-1-piperazinyl)propylthio)-5-(4-fluoro)phenyl)-1,3,4-oxadiazole]
inhibition at 10 µM [1]: 84.8% | inhibition at 10 µM [2]: 107% | inhibition at 10 µM [3]: 103%

Fc1ccc(-c2nnc(SCCCN3CCC(c4noc5cc(F)ccc45)CC3)o2)cc1 [Compound 10, 2-((3-(4-(3-(6-fluoro-benzisoxazole))-1-piperidyl)propylthio)-5-(4-fluoro)phenyl)-1,3,4-oxadiazole]
inhibition at 10 µM [1]: 88.6% | inhibition at 10 µM [2]: 56.4% | inhibition at 10 µM [3]: 117%

c1ccc2c(-c3nnc(SCCCN4CCN(c5nsc6ccccc56)CC4)o3)cccc2c1 [Compound 11]
affinities to D2, D3, 5-HT1A and 5-HT2A receptors (in words) [11]: relatively stronger affinities | affinity compared to aripiprazole (in words) [11]: equivalent to aripiprazole | inhibition at 10 µM [1]: 25.7% | inhibition at 10 µM [2]: 45.8% | inhibition at 10 µM [3]: 91%

Fc1ccc2c(C3CCN(CCCSc4nnc(-c5cccc6ccccc56)o4)CC3)noc2c1 [Compound 12]
ED50 [6]: 4.03 mg/kg | improvement of apomorphine induced clambering symptoms (in words) [6]: effectively improve | Total moving distance ([7]; 10 mg/kg intragastric): 20521.27 ± 7898.02 cm | Total moving distance ([7]; 20 mg/kg intragastric): 12936.50 ± 3627.24 cm | Total moving distance ([7]; 30 mg/kg intragastric): 16163.49 ± 7769.48 cm | Total moving distance ([7]; 50 mg/kg intragastric): 10298.82 ± 4269.95 cm | Total moving distance ([7]; 100 mg/kg intragastric): 5665.86 ± 1799.20 cm | ED50 ([7]; mice): 15 mg/kg | improvement of MK-801 induced high activity (in words) [7]: significantly improve | affinities to D2, D3, 5-HT1A and 5-HT2A receptors (in words) [11]: relatively stronger affinities | affinity compared to aripiprazole (in words) [11]: equivalent to aripiprazole | EPS at effective dosage (in words) [8]: did not cause EPS | catalepsy/MK-801 [8]: 20.00 | catalepsy/apomorphine [8]: 74.44 | ED50 [9]: 300 mg/kg | inhibition at 10 µM [1]: 98.4% | IC50 [2]: 175 nM | LD50 [10, 13]: > 2000 mg/kg | inhibition at 10 µM [4]: 100% | inhibition at 10 µM [5]: 60.6% | IC50 [3]: 122 nM

c1csc(-c2nnc(SCCCN3CCN(c4nsc5ccccc45)CC3)o2)c1 [Compound 13]
inhibition at 10 µM [1]: 47.8% | inhibition at 10 µM [2]: 95.9% | inhibition at 10 µM [3]: 101%

c1ccc2c(N3CCN(CCCSc4nnc(-c5ccncc5)o4)CC3)nsc2c1 [Compound 15]
inhibition at 10 µM [1]: 88.1% | inhibition at 10 µM [2]: 114% | inhibition at 10 µM [3]: 95.1%

Fc1ccc2c(C3CCN(CCCSc4nnc(-c5ccncc5)o4)CC3)noc2c1 [Compound 16]
inhibition at 10 µM [1]: 45.9% | inhibition at 10 µM [2]: 86.7% | inhibition at 10 µM [3]: 107%

O=C1CCc2ccc(OCCCCN3CCN(c4cccc(Cl)c4Cl)CC3)cc2N1 [aripiprazole]
LD50 ([10]; KM): 1400 mg/kg

Cc1nc2n(c(=O)c1CCN1CCC(c3noc4cc(F)ccc34)CC1)CCCC2 [risperidone, reference compound]
ED50 [6]: 0.02 mg/kg | improvement of apomorphine induced clambering symptoms (in words) [6]: effectively improve | ED50 [7]: 0.01 mg/kg | improvement of MK-801 induced high activity (in words) [7]: significantly improve | LD50 [12]: 82.1 mg/kg | LD50 [10, 13]: 82.1 mg/kg

O=C1Cc2cc(CCN3CCN(c4nsc5ccccc45)CC3)c(Cl)cc2N1 [ziprasidone]
LD50 [10, 13]: 2000 mg/kg
